{
  "source": "patent US6649605B2",
  "about": "“Treatment of tension-type headaches with NMDA receptor antagonists” (Head Explorer A/S, priority 1996, dated 2003)",
  "format_in_all_cases": "in vivo, human",
  "key": {"[1]": {"tested_on": "patients with chronic tension-type headache", "experiment": "Pressure pain detection thresholds (electronic pressure algometer) after L-NMMA", "from_the_text": "Sixteen patients with a diagnosis of chronic tension-type headache according to the criteria of the International Headache Society (Headache Classification Committee 1988) were included (Table XVII). Five of the patients had coexisting infrequent migraine (<four days/year). The patients were recruited from the out-patient headache clinic at Glostrup University Hospital without respect to presence or absence of myofascial tenderness. All patients underwent a general physical and a neurological examination and completed a diagnostic headache diary during a 4-week run-in period (Russell et al. 1992). […]\nThe recordings were performed in a standardized manner by the same observer, a trained technician (HA), throughout the study. All parameters were recorded at baseline, 60 and 120 minutes after start of infusion. […] Headache intensity was measured on a 100 mm Visual Analog Scale (VAS) (0-no headache and 100-worst imaginable headache) before, during and after start of infusion.\nPressure pain thresholds Pressure pain detection thresholds (PPDTs) were measured at the dorsum of the second finger (middle phalanx) and at a fixed point at the anterior part of the temporal muscle as previously described (Bendtsen et al. 1996b). […] Each threshold was calculated as the mean of five consecutive determinations performed with intervals of approximately 30 seconds. […]"}, "[2]": {"tested_on": "patients with chronic tension-type headache", "experiment": "Double-blind crossover i.v. L-NMMA vs placebo: headache intensity on VAS and VRS", "from_the_text": "Sixteen patients With a diagnosis of chronic tension-type headache according to the criteria of the International Headache Society, (headache Classification Committee 1988) were recruited from the out-patient headache clinic at Glostrup Hospital. There were 12 women and 4 men with a mean age (range) of 38.5 (23-52) years. Five patients with coexisting infrequent migraine (£ one day/month) were accepted. All patients completed a diagnostic headache diary during a 4-week run-in period (Russell et al. 1992). At screening, a full physical and neurological examination, including 12-lead ECG were carried out. Blood samples for routine haematological and biochemical testing, and urine sample for urine analysis were taken. The patients were not allowed to take analgesics 12 hours prior to the treatment. Exclusion criteria were: daily medication (including prophylactic headache therapy but not oral contraceptives); pregnant or breast feeding women; abuse of analgesics (corresponding to>2 gm of aspirin/day) or alcohol, serious somatic or psychiatric diseases including depression (Hamilton Depression Score ^317 (Hamilton 1960)); ischemic heart disease; a supine diastolic blood pressure >90 mmHg or heart rate <50 beats per minute at study entry. All patients gave written informed consent to participate in the study, which was approved by The local ethics committee and conducted in accordance with the Declaration of Helsinki.\n(§1) Randomization (Med.Stat) and drug preparation were performed by staff not involved in the study. The medication was given over 15 minutes into an antecubital vein (Braun Perfusor). The following parameters were measured at baseline and […] post administration: headache intensity on a 100-mm Visual Analog Scale (VAS) (0-no headache and 100-worst imaginable headache) and on a Verbal Rating Scale (VRS) from 0-10 (0-no headache; 5-moderate headache; 10-worst imaginable headache). Blood pressure and pulse rate were measured 5 minutes prior to administration of treatment and at 5, 10, 15, 20, 25, 30, 60, 90 and 120 minutes post administration. Twelve-lead ECG was monitored continuously. Any adverse events were recorded. Patient with unrelieved headache at 120 minutes post treatment were allowed to take rescue medication. All patients were asked to record details of the following on a diary card at 4, 8, 12, 16, 20 and 24 hours post administration, headache intensity on VRS, any medication taken and adverse events. Between 4-7 days after each treatment, the patients returned to the clinic, the diary cards were collected and any adverse events were noted.\n(§2) Primary endpoint was the reduction of pain intensity over time on active treatment compared to placebo. The secondary endpoints were reduction of pain intensity at 30, 60, 90 and 120 minutes post dosing on VAS and VRS compared to pre-treatment pain score within each treatment. Comparison of pain intensity on VAS, blood pressure and pulse rate over time between treatments were performed With ANOVA. Paired-Samples T Test was used to compare pre-treatment pain score on VAS with pain score at 30, 60, 90, 120 minutes post dosing within each treatment. The sum of differences between the pre-treatment VRS score and the VRS score at 30, 60, 90, 120 minutes post dosing was calculated in order to obtained a summary measure of pain score for each treatment (Matthews et al. 1990). These sums of differences for each treatment were compared by Wilcoxon Signed Rank test. Five percent was accepted as level of significance.\nThe recordings were performed in a standardized manner by the same observer, a trained technician (HA), throughout the study. All parameters were recorded at baseline, 60 and 120 minutes after start of infusion. The trial was designed as a double blind, placebo controlled, crossover study. […] The patients were not allowed to take analgesics 12 hours prior to the examination. […]"}, "[3]": {"tested_on": "patients with chronic tension-type headache", "experiment": "Blood pressure, pulse rate, adverse events and rescue medication after L-NMMA infusion", "protocol": "as §1, §2"}},
  "note": "“And” between values parts separate entries of the source, which are not always exact repeats. Equal values may be shown once. “Also recorded” adds a separate entry of the source.",
  "data": [
    {"molecule": "CN=C(N)NCCC[C@H](N)C(=O)O.Cl", "note": "[L-NMMA, L-N^G methyl arginine hydrochloride]", "values": [
      {"measurement": "PPDTs compared with pre-treatment values", "setting": "[1]; finger and temporal region, hydrochloride", "result": "no changes in PPDTs at 60 and 120 minutes; also recorded: largely unchanged"},
      {"measurement": "PPDTs compared with placebo", "setting": "[1]; finger p=0.78, temporal region p=0.77", "result": "no significant difference"},
      {"measurement": "Pain intensity (VAS) over time compared with placebo", "setting": "[2]; 6 mg/kg i.v., 16 patients, ANOVA, hydrochloride", "result": "reduced pain intensity (VAS) over time significantly more than placebo; also recorded: effective in the treatment of patients with chronic tension-type headache; also recorded: significantly reduced"},
      {"measurement": "Pain score compared with pre-treatment value within treatment", "setting": "[2]; 6 mg/kg i.v., post treatment time points, hydrochloride", "result": "significantly reduced after 30, 60, 90 and 120 minutes; also recorded: significantly reduced at each time point"},
      {"measurement": "Pain score on VAS, 30 minutes", "setting": "[2]; 30 minutes post dosing, 100-mm VAS, 6 mg/kg i.v., mean (SD)", "result": "38 ± 18"},
      {"measurement": "Pain score on VAS, 60 minutes", "setting": "[2]; 60 minutes post dosing, 100-mm VAS, 6 mg/kg i.v., mean (SD)", "result": "35 ± 18"},
      {"measurement": "Pain score on VAS, 90 minutes", "setting": "[2]; 90 minutes post dosing, 100-mm VAS, 6 mg/kg i.v., mean (SD)", "result": "34 ± 21"},
      {"measurement": "Pain score on VAS, 120 minutes", "setting": "[2]; 120 minutes post dosing, 100-mm VAS, 6 mg/kg i.v., mean (SD)", "result": "33 ± 21"},
      {"measurement": "Pain intensity on VRS compared with placebo", "setting": "[2]; Verbal Rating Scale 0-10, 6 mg/kg i.v., p=0.02", "result": "significantly lower"},
      {"measurement": "Duration of antinociceptive effect on headache intensity and of reduction of muscle hardness and tenderness", "setting": "[2]; after start of infusion, 6 mg/kg i.v.", "result": "at least 120 minutes"},
      {"measurement": "Pain score on VAS, baseline", "setting": "[2]; before treatment, 100-mm VAS, 6 mg/kg i.v. over 15 minutes, mean (SD), 16 patients", "result": "49 ± 16"},
      {"measurement": "Subjective symptoms reported (number of patients)", "setting": "[3]; 6 mg/kg i.v.", "result": "tiredness (2), dryness of the mouth (3), drowsiness (1), exhaustion (1), nausea (1) and a feeling of tingling in arm (1)"},
      {"measurement": "MAP and pulse rate over time compared with placebo", "setting": "[3]; 6 mg/kg i.v., p=0.0001 and p=0.0001", "result": "changed significantly over time"},
      {"measurement": "Time at which the difference in MAP and pulse rate to placebo disappeared", "setting": "[3]; after start of infusion", "result": 60, "unit": "min"},
      {"measurement": "Maximum decrease in pulse rate", "setting": "[3]; occurred 10 minutes post dosing, 6 mg/kg i.v., hydrochloride, 6 mg/kg", "result": "16±2% and 16%"},
      {"measurement": "Maximum increase in mean arterial blood pressure (MAP)", "setting": "[3]; occurred 15 minutes post dosing, 6 mg/kg i.v., hydrochloride, 6 mg/kg", "result": "12±2% and 12%"},
      {"measurement": "Patients who reported subjective symptoms in relation to the infusion", "setting": "[3]; of 16 patients, 6 mg/kg i.v.", "result": "Seven"},
      {"measurement": "Patients who used simple analgesics as rescue medication", "setting": "[3]; of 16 patients, 7 on placebo", "result": "Three"}
    ]}
  ]
}
